Key:
[1] = system: corneal epithelium in wounded mouse eyes; assay: In vivo healing of mouse corneal epithelium (corneal wound model, fluorescein staining); parameters: species or system mouse (C57BL/6); conditions: 25 nM (about 3 mg/kg) in aqueous PBS, applied after 1.5 mm epithelial wound; within 16 hours post-treatment; compared to PBS and EGF controls
Protocol: The FIG. 1s a series of photomicrographs depicting the healing of a wound in the cornea of mouse eye, at time 0 and 16 hours post-wounding, upon treatment with certain compositions of the present invention. Wounds were introduced into the corneas of mice, and the mice treated immediately after wounding with vehicle (PBS), with 100 ng/ml of epidermal growth factor (EGF), or with 25 nM (about 3 mg/kg) of a (Pro-Pro-Gly)7 CMP of the invention (SEQ ID NO:1) (“Cmpd 3”), or of a (Hyp-Pro-Gly)7-SubP CMP-TC of the invention (SEQ ID NO:390) (“Cmpd 10”).
To examine the possible therapeutic effects of CMPs and CMP-TC conjugates of the invention, studies were designed to test certain CMPs and CMP-TC conjugates in an in vivo setting—the healing of the corneal epithelium in wounded mouse eyes. […] Wound size at various time points over 48 hours was examined by fluorescein staining (see Carlson et al., id.), and documented via fluorescent photomicrography, and quantified using Image J software (see Rush, J. S. et al., Investig. Ophthalmol. Visual Sci. 57 (14): 5864-5871 (2016); Rush, J. S. et al., Investig. Ophthalmol. Visual Sci. 55 (8): 4691-4699 (2014)). […]

[2] = triple helix of the peptide chains; Sakakibara et al. 1973; cited from earlier work

Substance	wound healing in mouse cornea and corneal stroma (reduction in diameter and intensity of fluorescein fluorescence) [1]	melting temperature of a triple helix [2] [°C]
(Hyp-Pro-Gly)7-SubP [Cmpd 10]	significant acceleration of wound healing	–
(Pro-Pro-Gly)7 [Cmpd 3]	significant acceleration of wound healing	–
(ProHypGly)10	–	58
(ProProGly)10	–	24

From US12551525B2, “Collagen peptide-based medicament compositions and devices and methods of production and use thereof” (SUSTAIN HOLDINGS, LLC, priority 2017, dated 2026)
